Assay results reported in US20210300943A1, “OGA INHIBITOR COMPOUNDS” (Janssen Pharmaceutica NV, priority 2018, published 2021).

Biological target: T1, recombinant human Meningioma Expressed Antigen 5 (MGEA5), also referred to as O-GlcNAcase (OGA) (Homo sapiens, UniProt O60502)
T1 construct: Full length OGA enzyme was purchased at OnGene (cat #TP322411); purchased OnGene (so in the source)
T1 sequence (O60502 1-916): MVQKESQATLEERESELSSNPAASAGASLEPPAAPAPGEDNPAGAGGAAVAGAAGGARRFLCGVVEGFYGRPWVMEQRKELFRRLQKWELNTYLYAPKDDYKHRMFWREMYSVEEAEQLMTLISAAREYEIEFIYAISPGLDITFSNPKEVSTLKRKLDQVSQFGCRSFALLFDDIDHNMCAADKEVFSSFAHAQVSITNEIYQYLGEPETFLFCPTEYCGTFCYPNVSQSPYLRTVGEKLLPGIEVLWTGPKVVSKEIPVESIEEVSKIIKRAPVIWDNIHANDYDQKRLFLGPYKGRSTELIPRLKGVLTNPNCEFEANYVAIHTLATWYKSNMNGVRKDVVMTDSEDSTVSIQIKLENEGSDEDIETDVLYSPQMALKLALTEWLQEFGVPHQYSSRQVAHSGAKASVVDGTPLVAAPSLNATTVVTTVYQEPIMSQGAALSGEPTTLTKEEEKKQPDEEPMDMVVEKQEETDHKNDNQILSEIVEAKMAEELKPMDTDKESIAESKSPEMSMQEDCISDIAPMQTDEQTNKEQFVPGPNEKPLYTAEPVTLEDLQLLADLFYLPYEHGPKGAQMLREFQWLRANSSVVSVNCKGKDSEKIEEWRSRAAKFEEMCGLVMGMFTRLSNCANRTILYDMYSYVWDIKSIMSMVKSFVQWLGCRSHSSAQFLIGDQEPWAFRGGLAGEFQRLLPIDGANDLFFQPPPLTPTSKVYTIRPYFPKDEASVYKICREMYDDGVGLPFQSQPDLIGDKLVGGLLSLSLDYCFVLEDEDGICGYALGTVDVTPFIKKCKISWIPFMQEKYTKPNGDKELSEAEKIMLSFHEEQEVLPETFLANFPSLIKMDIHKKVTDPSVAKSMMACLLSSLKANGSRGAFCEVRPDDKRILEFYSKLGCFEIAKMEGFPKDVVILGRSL
Experiment: OGA biochemical assay (inhibition of FM-GlcNAc hydrolysis, fluorescence)
Conditions: for Emax / Enzymatic Emax (%): maximal effect; for Emax: read-out: Enzymatic Emax (%); for IC50: read-out: Enzymatic hOGA, pIC50 (converted)
Excerpt: The assay is based on the inhibition of the hydrolysis of fluorescein mono-β-D-N-Acetyl-Glucosamine (FM-GlcNAc) (Mariappa et al. 2015, Biochem J 470:255) by the recombinant human Meningioma Expressed Antigen 5 (MGEA5), also referred to as O-GlcNAcase (OGA). The hydrolysis FM-GlcNAc (Marker Gene technologies, cat #M1485) results in the formation of β-D-N-glucosamineacetate and fluorescein. The fluorescence of the latter can be measured at excitation wavelength 485 nm and emission wavelength 538 nm. An increase in enzyme activity results in an increase in fluorescence signal. Full length OGA enzyme was purchased at OnGene (cat #TP322411). The enzyme was stored in 25 mM Tris.HCl, pH 7.3, 100 mM glycine, 10% glycerol at −20° C. Thiamet G and GlcNAcStatin were tested as reference compounds (Yuzwa et al. 2008 Nature Chemical Biology 4:483; Yuzwa et al. 2012 Nature Chemical Biology 8:393). The assay was performed in 200 mM Citrate/phosphate buffer supplemented with 0.005% Tween-20. 35.6 g Na2HPO42H2O (Sigma, #C0759) were dissolved in 1 L water to obtain a 200 mM solution. 19.2 g citric acid (Merck, #1.06580) was dissolved in 1 L water to obtain a 100 mM solution. pH of the sodiumphosphate solution was adjusted with the citric acid solution to 7.2. The buffer to stop the reaction consists of a 500 mM Carbonate buffer, pH 11.0. 734 mg FM-GlcNAc were dissolved in 5.48 mL DMSO to obtain a 250 mM solution and was stored at −20° C. OGA was used at a 2 nM concentration and FM-GlcNAc at a 100 uM final concentration. Dilutions were prepared in assay buffer.
50 nl of a compound dissolved in DMSO was dispensed on Black Proxiplate TM 384 Plus Assay plates (Perkin Elmer, #6008269) and 3 μl fl-OGA enzyme mix added subsequently. Plates were pre-incubated for 60 min at room temperature and then 2 μl FM-GlcNAc substrate mix added. […] Plates were briefly centrifuged for 1 min at 1000 rpm and incubate at room temperature for 6 h. To stop the reaction 5 μl STOP buffer were added and plates centrifuge again 1 min at 1000 rpm. Fluorescence was quantified in the Thermo Scientific Fluoroskan Ascent or the PerkinElmer EnVision with excitation wavelength 485 nm and emission wavelength 538 nm.
For analysis a best-fit curve is fitted by a minimum sum of squares method. From this an IC50 value and Hill coefficient was obtained. High control (no inhibitor) and low control (saturating concentrations of standard inhibitor) were used to define the minimum and maximum values.

| Compound | Emax | IC50 | Enzymatic Emax (%) |
| --- | --- | --- | --- |
| Cc1cc(OC[C@@H]2CCCN(C(C)c3ccc4c(n3)OCCO4)C2)cc(C)n1 (mixture of isomers) [Product 20] | 98% | 316 nM | – |
| Cc1cc(C[C@H]2CCCN(C(C)c3ccc4c(c3)OCC(=O)N4)C2)cc(C)n1 (mixture of isomers) [Product 58] | 102% | 126 nM | – |
| COc1cc(NC[C@@H]2CCCN(C(C)c3ccc4c(n3)OCCO4)C2)cc(C)n1 (mixture of isomers) [Product 27] | 102% | 200 nM | – |
| Cc1cc([C@H]2CCCN([C@@H](C)c3ccc4c(c3)OCC4)C2)cc(C)n1 (single isomer, unassigned) [Product 5] | 102% | 3.16 nM | – |
| Cc1cc([C@@H]2CCCN([C@H](C)c3ccc4c(c3)OCC4)C2)cc(C)n1 (single isomer, unassigned) [Product 6] | 101% | 126 nM | – |
| COc1cc(NC[C@H]2CCCN(C(C)c3ccc4c(n3)OCCO4)C2)cc(C)n1 (single isomer, unassigned) [Product 25] | 103% | 79.4 nM | – |
| COc1cc(NC[C@@H]2CCCN(C(C)c3ccc4c(n3)OCCO4)C2)cc(C)n1 (single isomer, unassigned) [Product 28] | 99% | 1000 nM | – |
| COc1cc(NC[C@@H]2CCCN(C(C)c3ccc4c(n3)OCCO4)C2)cc(C)n1 (single isomer, unassigned) [Product 29] | – | 79.4 nM | 97% |
| Cc1cc(NC[C@H]2CCCN([C@H](C)c3ccc4c(n3)OCCO4)C2)cc(C(F)(F)F)n1 (single isomer, unassigned) [Product 32] | 99% | 398 nM | – |
| Cc1cc(NCC2CCCN(C(C)c3ccc4c(n3)OCCO4)C2)cc(C(F)(F)F)n1 (single isomer, unassigned) [Product 34] | – | 200 nM | 100% |
| Cc1cc(NCC2CCCN(C(C)c3ccc4c(n3)OCCO4)C2)cc(C(F)(F)F)n1 (single isomer, unassigned) [Product 35] | – | 2510 nM | 88% |
| Cc1cc(C[C@H]2CCCN([C@H](C)c3cc4c(cc3F)OCCO4)C2)cc(C)n1 (single isomer, unassigned) [Product 41] | 94% | 1000 nM | – |
| Cc1cc(C[C@H]2CCCN(C(C)c3ccc4c(n3)OCCO4)C2)cc(C)n1 (single isomer, unassigned) [Product 45] | 98% | 501 nM | – |
| Cc1cc(C[C@H]2CCCN(C(C)c3cnc4c(c3)OCCN4)C2)cc(C)n1 (single isomer, unassigned) [Product 51] | 101% | 200 nM | – |
| Cc1cc([C@H]2CCCN([C@H](C)c3ccc4c(c3)OCC4)C2)cc(C)n1 [Product 3] | 97% | 794 nM | – |
| Cc1cnc(C)c(C2CCCN(C(C)c3ccc4c(n3)OCCO4)C2)n1 (stereo not shown) [Product 12] | 96% | 501 nM | – |
| Cc1cc(O[C@@H]2CCCN([C@@H](C)c3cnc4c(c3)OCCN4)C2)cc(C(F)(F)F)n1 [Product 17] | 99% | 79.4 nM | – |
| Cc1cc(NCC2CCCN(C(C)c3cc4c(cc3F)OCCO4)C2)cc(C)n1 (stereo not shown) [Product 37] | 102% | 5.01 nM | – |
| COc1cc(NCC2CCCN(C(C)c3cc4c(cc3F)OCCO4)C2)cc(C)n1 (stereo not shown) [Product 38] | 102% | 6.31 nM | – |
| Cc1cc(C[C@H]2CCCN(Cc3cc4c(cc3C)OCCO4)C2)cc(C)n1 [Product 39] | 92% | 794 nM | – |
| Cc1cc(C[C@H]2CCCN(Cc3cnc4c(c3)OCCN4C)C2)cc(C)n1 [Product 53] | 94% | 794 nM | – |
| Cc1cc(C[C@H]2CCCN(Cc3ccc4c(n3)OCC(=O)N4)C2)cc(C)n1 [Product 54] | 78% | 3160 nM | – |
| Cc1cc(C[C@H]2CCCN(Cc3cnc4c(c3)OCC(=O)N4)C2)cc(C)n1 [Product 55] | 90% | 1260 nM | – |

Second part, the molecule after the results:

| Emax | IC50 | Enzymatic Emax (%) | Compound |
| --- | --- | --- | --- |
| 77% | 3160 nM | – | Cc1cc(C[C@H]2CCCN(C(C)c3ccc4c(n3)OCC(=O)N4C)C2)cc(C)n1 (mixture of isomers) [Product 62] |
| 1% | > 10000 nM | – | Cc1cc(C[C@H]2CCCN(C(C)c3cc4c(cc3C)OCCO4)C2)cc(C)n1 (mixture of isomers) [Product 126] |
| – | 3160 nM | 78% | Cc1cc(C[C@H]2CCCN(C(C)c3ccc4c(n3)OCC(=O)N4)C2)cc(C)n1 (single isomer, unassigned) [Product 60] |
| 97% | 501 nM | – | Cc1cc(C[C@H]2CCCN([C@@H](C)c3cnc4c(c3)OCCO4)C2)cc(C)n1 (single isomer, unassigned) [Product 131] |
| 98% | 501 nM | – | Cc1cc([C@@H]2CCCN([C@H](C)c3cc4c(cc3F)OCCO4)C2)cc(C(F)(F)F)n1 (single isomer, unassigned) [Product 141] |
| 52% | – | – | Cc1cc([C@H]2CCCN([C@H](C)c3cc4c(cc3F)OCCO4)C2)cc(C(F)(F)F)n1 (single isomer, unassigned) [Product 142] |
| 87% | 2510 nM | – | Cc1cc([C@@H]2CCCN([C@@H](C)c3cc4c(cc3F)OCCO4)C2)cc(C(F)(F)F)n1 (single isomer, unassigned) [Product 143] |
| 99% | 3.16 nM | – | Cc1cc([C@H]2CCCN([C@@H](C)c3cc4c(cc3F)OCCO4)C2)cc(C(F)(F)F)n1 (single isomer, unassigned) [Product 144] |
| 102% | 200 nM | – | COc1cc(C[C@H]2CCCN([C@@H](C)c3ccc4c(n3)OCCO4)C2)cc(C)n1 [Product 65] |
| 10% | > 10000 nM | – | Cc1cc(C[C@H]2CCCN(Cc3cnc4c(c3)OCC(=O)N4C)C2)cc(C)n1 [Product 127] |
| 96% | 158 nM | – | CC(c1ccc2c(n1)OCCO2)N1CCCC(Oc2ncc(F)cc2F)C1 (stereo not shown) [Product 134] |
